Assay results reported in patent US9113629B2, “4-amino-6-(4-substituted-phenyl)-picolinates and 6-amino-2-(4-substituted-phenyl)-pyrimidine-4-carboxylates and their use as herbicides” (DOW AGROSCIENCES LLC, priority 2013, dated 2015).

tested on: Key Broadleaf Weed and Crop Species; test: Post-emergent Test II herbicidal activity (Table 5); type: in vivo; conditions: post-emergence, 336 h; ABUTH: velvetleaf (Abutilon theophrasti); 70 g ai/ha; post-emergent; 14 days after application; read-out: Visual Growth Reduction (%) 14 Days After Application ABUTH
Method in brief: (§1)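 Compounds, dissolved in 97:3 acetone/DMSO and diluted into an aqueous carrier containing crop oil concentrate and Triton X-155, are applied over the top of young plants at 187 L/ha. Injury is scored visually at 14 d, 0% meaning no effect and 100% complete kill.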

Compound	pest or weed control at 70 g/ha
Cc1c(-c2ccc(Br)cc2)nc(C(=O)O)c(Cl)c1N [Compound 78, 4-Amino-6-(4-bromophenyl)-3-chloro-5-methylpicolinic acid]	95 to 100%

same assay, conditions: post-emergence, 336 h; ABUTH: velvetleaf (Abutilon theophrasti); 140 g ai/ha; post-emergent; 14 days after application; read-out: Visual Growth Reduction (%) 14 Days After Application ABUTH

Compound	pest or weed control at 140 g/ha
Cc1c(-c2ccc(Br)cc2)nc(C(=O)O)c(Cl)c1N [Compound 78, 4-Amino-6-(4-bromophenyl)-3-chloro-5-methylpicolinic acid]	95 to 100%

same assay, conditions: post-emergence, 336 h; AMARE: redroot pigweed (Amaranthus retroflexus); 70 g ai/ha; post-emergent; 14 days after application; read-out: Visual Growth Reduction (%) 14 Days After Application AMARE

Compound	pest or weed control at 70 g/ha
Cc1c(-c2ccc(Br)cc2)nc(C(=O)O)c(Cl)c1N [Compound 78, 4-Amino-6-(4-bromophenyl)-3-chloro-5-methylpicolinic acid]	85 to 94%

same assay, conditions: post-emergence, 336 h; AMARE: redroot pigweed (Amaranthus retroflexus); 140 g ai/ha; post-emergent; 14 days after application; read-out: Visual Growth Reduction (%) 14 Days After Application AMARE

Compound	pest or weed control at 140 g/ha
Cc1c(-c2ccc(Br)cc2)nc(C(=O)O)c(Cl)c1N [Compound 78, 4-Amino-6-(4-bromophenyl)-3-chloro-5-methylpicolinic acid]	95 to 100%

same assay, conditions: post-emergence, 336 h; BRSNN: oilseed-rape, canola (Brassica napus); 70 g ai/ha; post-emergent; 14 days after application; read-out: Visual Growth Reduction (%) 14 Days After Application BRSNN

Compound	pest or weed control at 70 g/ha
Cc1c(-c2ccc(Br)cc2)nc(C(=O)O)c(Cl)c1N [Compound 78, 4-Amino-6-(4-bromophenyl)-3-chloro-5-methylpicolinic acid]	85 to 94%

same assay, conditions: post-emergence, 336 h; BRSNN: oilseed-rape, canola (Brassica napus); 140 g ai/ha; post-emergent; 14 days after application; read-out: Visual Growth Reduction (%) 14 Days After Application BRSNN

Compound	pest or weed control at 140 g/ha
Cc1c(-c2ccc(Br)cc2)nc(C(=O)O)c(Cl)c1N [Compound 78, 4-Amino-6-(4-bromophenyl)-3-chloro-5-methylpicolinic acid]	95 to 100%

same assay, conditions: post-emergence, 336 h; CHEAL: lambsquarters (Chenopodium album); 70 g ai/ha; post-emergent; 14 days after application; read-out: Visual Growth Reduction (%) 14 Days After Application CHEAL

Compound	pest or weed control at 70 g/ha
Cc1c(-c2ccc(Br)cc2)nc(C(=O)O)c(Cl)c1N [Compound 78, 4-Amino-6-(4-bromophenyl)-3-chloro-5-methylpicolinic acid]	85 to 94%

same assay, conditions: post-emergence, 336 h; CHEAL: lambsquarters (Chenopodium album); 140 g ai/ha; post-emergent; 14 days after application; read-out: Visual Growth Reduction (%) 14 Days After Application CHEAL

Compound	pest or weed control at 140 g/ha
Cc1c(-c2ccc(Br)cc2)nc(C(=O)O)c(Cl)c1N [Compound 78, 4-Amino-6-(4-bromophenyl)-3-chloro-5-methylpicolinic acid]	85 to 94%

same assay, conditions: post-emergence, 336 h; EPHHL: wild poinsettia (Euphorbia heterophylla); 70 g ai/ha; post-emergent; 14 days after application; read-out: Visual Growth Reduction (%) 14 Days After Application EPHHL

Compound	pest or weed control at 70 g/ha
Cc1c(-c2ccc(Br)cc2)nc(C(=O)O)c(Cl)c1N [Compound 78, 4-Amino-6-(4-bromophenyl)-3-chloro-5-methylpicolinic acid]	0 to 29%

same assay, conditions: post-emergence, 336 h; EPHHL: wild poinsettia (Euphorbia heterophylla); 140 g ai/ha; post-emergent; 14 days after application; read-out: Visual Growth Reduction (%) 14 Days After Application EPHHL

Compound	pest or weed control at 140 g/ha
Cc1c(-c2ccc(Br)cc2)nc(C(=O)O)c(Cl)c1N [Compound 78, 4-Amino-6-(4-bromophenyl)-3-chloro-5-methylpicolinic acid]	0 to 29%

same assay, conditions: post-emergence, 336 h; HELAN: sunflower (Helianthus annuus); 70 g ai/ha; post-emergent; 14 days after application; read-out: Visual Growth Reduction (%) 14 Days After Application HELAN

Compound	pest or weed control at 70 g/ha
Cc1c(-c2ccc(Br)cc2)nc(C(=O)O)c(Cl)c1N [Compound 78, 4-Amino-6-(4-bromophenyl)-3-chloro-5-methylpicolinic acid]	95 to 100%

same assay, conditions: post-emergence, 336 h; HELAN: sunflower (Helianthus annuus); 140 g ai/ha; post-emergent; 14 days after application; read-out: Visual Growth Reduction (%) 14 Days After Application HELAN

Compound	pest or weed control at 140 g/ha
Cc1c(-c2ccc(Br)cc2)nc(C(=O)O)c(Cl)c1N [Compound 78, 4-Amino-6-(4-bromophenyl)-3-chloro-5-methylpicolinic acid]	95 to 100%

same assay, conditions: post-emergence, 336 h; VIOTR: wild pansy (Viola tricolor); 70 g ai/ha; post-emergent; 14 days after application; read-out: Visual Growth Reduction (%) 14 Days After Application VIOTR

Compound	pest or weed control at 70 g/ha
Cc1c(-c2ccc(Br)cc2)nc(C(=O)O)c(Cl)c1N [Compound 78, 4-Amino-6-(4-bromophenyl)-3-chloro-5-methylpicolinic acid]	0 to 29%

same assay, conditions: post-emergence, 336 h; VIOTR: wild pansy (Viola tricolor); 140 g ai/ha; post-emergent; 14 days after application; read-out: Visual Growth Reduction (%) 14 Days After Application VIOTR

Compound	pest or weed control at 140 g/ha
Cc1c(-c2ccc(Br)cc2)nc(C(=O)O)c(Cl)c1N [Compound 78, 4-Amino-6-(4-bromophenyl)-3-chloro-5-methylpicolinic acid]	0 to 29%

tested on: Key Grass and Sedge Weeds as well as Grass Crops; test: Post-emergent Test II herbicidal activity (Table 6); type: in vivo; conditions: Triticum aestivum, post-emergence, 336 h, TRZSS (wheat), application rate 70 g ai/ha, read-out: Visual Growth Reduction (%) 14 Days After Application, TRZSS
Method in brief: as §1

Compound	pest or weed control at 70 g/ha
Cc1c(-c2ccc(Br)cc2)nc(C(=O)O)c(Cl)c1N [Compound 78, 4-Amino-6-(4-bromophenyl)-3-chloro-5-methylpicolinic acid]	45 to 59%
